Test results published in the METLIN SMRT retention time set (Domingo-Almenara et al. 2019).

Assay: gradient 5% acetonitrile 3 min, to 50% in 2 min, to 85% in 15 min, held 3 min, 100 µL/min
Settings: column: Zorbax Extend-C18 2.1 x 50 mm; eluents: water / acetonitrile, 0.1% formic acid
In short: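 Standards, all pure, were combined into mixtures of ~100 molecules and run at 100 μL/min on a Zorbax Extend-C18 column (2.1 × 50 mm, 1.8 μm) with water and acetonitrile, each containing 0.1% formic acid. A coupled quadrupole time-of-flight mass spectrometer operated in positive and negative ionization mode. Retention time values come from computationally picked adduct peaks, each inspected manually.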

Compound	RP-LC retention time [s]
COc1ccc(Cl)cc1NC(=O)CN1CCCC(COCc2ccccc2)C1 (stereo unspecified)	630
CC1=C(c2ccc(Cl)cc2)S(=O)(=O)N=C1N1CCCN(C(=O)c2ccccc2)CC1	862
COc1nc2ccccc2nc1N1CCCC(C(=O)Nc2ccc(F)cc2F)C1 (stereo unspecified)	1170
CCC(=O)N1CCc2ccccc2C1C(=O)NCc1ccccc1Br (stereo unspecified)	884
O=C1C2CCCN2C(=O)c2ccccc2N1Cc1ccccc1 (stereo unspecified)	744
O=C(Nc1nccs1)C1CCN(C(=O)c2cccc(-n3cnnn3)c2)CC1	625
Cc1ccc(NC(=O)C(=O)NCC2CCN(S(C)(=O)=O)CC2)cc1N1CCCC1=O	627
O=C(C1CCN(c2cnc(N3CCSCC3)nc2)CC1)N1CCC2(CC1)OCCO2	692
Cc1coc2c(C)c3oc(=O)c(CCC(=O)N4CCN(c5ccccn5)CC4)c(C)c3cc12	795
CCNC(=O)N1CCc2c(c(-c3nc(-c4ccccc4)no3)nn2C)C1	787
CSc1cccc(NC(=O)C2CCCN(c3cnc4nc(C)c(C)nc4c3)C2)c1 (stereo unspecified)	807
O=C(Cc1ccccc1)N1CC(Oc2ccc(-c3nc(-c4ccccc4)no3)cc2)C1	1150
CCN1CCN(C(=O)CSCc2nc3cccnc3n2C2CCCCC2)CC1	625
CCCNC(=O)C1CCN(c2ccc(SCC(=O)Nc3cc(F)ccc3C)nn2)CC1	667
COCCC1CCN(C(=O)c2ccc3nc[nH]c3c2)CC1	572
COCCNC(=O)C1CCN(c2nc3ccc(-c4ccccc4F)nc3s2)CC1	827
CN(CCNC(=O)C1CCCN(c2cnc3nccnc3c2)C1)C1CCCCC1 (stereo unspecified)	577

Compound	RP-LC retention time [s]
O=C(CN1C(=O)COc2ccc(C(=O)N3CCCC3)cc21)NCc1ccc(Cl)cc1	745
COc1ccc(OC)c(C2NC(=O)NC(C)=C2C(=O)OCC(F)(F)C(F)(F)F)c1 (stereo unspecified)	801
Cn1cc(C(=O)NC2CCCCC2)c2nn(-c3ccccc3)c(=O)c-2c1	678
Cn1nc(-c2ccccc2)cc1C(=O)N1CCC(C(=O)Nc2nccs2)CC1	712
Cn1c(=O)c(N2CCC(C(=O)NCCc3ccco3)CC2)nc2ccccc21	794
COc1cccc(CNC(=O)Cn2cnc3c(sc4nc(-c5ccccc5)ccc43)c2=O)c1	975
O=C(CCCc1nc2cccnc2n1Cc1ccccc1)N1CCN(c2ncccn2)CC1	563
O=C(NC1CCCC1)C1CCN(c2cncnc2N2CCCCC2)CC1	641
COc1cc(-c2noc(-c3nc(-c4ccccc4)no3)n2)cc(OC)c1OC	1070
Cc1noc(C)c1S(=O)(=O)N1CC(c2nc(-c3ccncc3)nn2C)C1	618
CCN1CCCN(C(=O)C2(c3ccc(OC)cc3)CC2)CC12CCOCC2	620
O=C(C1CC1)N1CCc2sc(S(=O)(=O)Nc3cc(Cl)ccc3F)cc2C1	868
Cc1ccc(C)c2sc(NC(=O)CN(C)S(C)(=O)=O)nc12	804
CCNc1cc(N2CCCC(CCC(=O)N3CCN(C(=O)c4ccco4)CC3)C2)ncn1 (stereo unspecified)	610
COc1cccc(N2CCN(C(=O)C3CCN(c4nccnc4Sc4ccccc4)CC3)CC2)c1	1070
O=C(NC(c1ccccc1)c1nnc(N2CCCC2)o1)c1ccc2c(c1)OCO2 (stereo unspecified)	777
CCOCCCNCc1ccc(-c2ccc(Cl)cc2)o1	687

Next, values leading:

RP-LC retention time [s]	Compound
628	CCN1CCN(Cc2ccc(-c3cc4c(N[C@H](C)c5ccccc5)ncnc4[nH]3)cc2)CC1
556	Cc1cc(C)n(CC(=O)N2CCCn3ccnc3C2c2cnn(C)c2)n1 (stereo unspecified)
691	CCNC(=O)C1CCCN(C(=O)Nc2ccc(NC(=O)Nc3ccc(F)cc3)cc2)C1 (stereo unspecified)
880	COc1ccc(S(=O)(=O)N2CCCC(C(=O)NCCCO)C2)cc1OC (stereo unspecified)
698	Cc1cc(C(=O)NCC(C)C)c2cc(F)ccc2n1
672	CCC(CC)C(=O)Nc1c(-c2ccc(OC)cc2)nc2cc(C)ccn12
724	COC(=O)C1CCN(S(=O)(=O)c2cc3c4c(c2)CCC(=O)N4CCC3)CC1
779	Cc1nnc(-c2ccc3ccn(CC(=O)NCc4ccccc4Cl)c3c2)o1
824	O=C(CCCc1c[nH]c2ccccc12)N1CCN2CCS(=O)(=O)N(C3CC3)C(=O)C2C1 (stereo unspecified)
874	COc1ccc(-c2nnc(-c3cccnc3N3CCN(C(=O)c4ccc(C#N)cc4)CC3)o2)cc1
607	CC(C)CN1C(=O)c2ccccc2C(C(=O)NCCCN2CCN(C)CC2)C1c1cccs1 (stereo unspecified)
792	O=C(c1cccs1)N1CCc2ccc([N+](=O)[O-])cc2C1
606	O=C(Cc1ccc(F)cc1)N1CCN(C(=O)c2cc(-c3cccnc3)n[nH]2)CC1
606	CNC1(C)[C@H]2CC[C@H](C2)C1(C)C (stereo partly specified)
818	Cc1ccc(Cl)cc1NC(=O)CN(C)S(=O)(=O)c1c[nH]c(C(=O)N2CCCC2)c1
582	Cc1nc2c(n1C)CN(C(=O)Cc1ccc(F)cc1)CC2

RP-LC retention time [s]	Compound
1010	O=C(c1cccc(Br)c1)N1CCc2nc(-c3ccc(F)cc3)ncc2C1
645	CNC(=O)c1cccc(Nc2c(-c3ccccc3)nc3cnccn23)c1
763	Cc1ccc(Nc2c(-c3c(F)cccc3Cl)nc3cccc(C)n23)cc1
996	O=c1n(Cc2c(F)cccc2Cl)nc2ccc(S(=O)(=O)N3CCCCCC3)cn12
969	CCOc1cccc(CNC(=O)c2c(O)c3cccnc3[nH]c2=O)c1
1150	Cc1cccc(Sc2nccnc2N2CCCC(C(=O)NC(C)c3ccccc3)C2)c1 (stereo unspecified)
719	CCCNc1cc(N2CCCC(CCC(=O)N3CCN(c4ccccc4)CC3)C2)ncn1 (stereo unspecified)
749	Cc1ccc(-n2nc(N3CCN(C(=O)C4CC4)CC3)ccc2=O)cc1C
951	O=S(=O)(c1ccc2nc(N3CCN(c4ccc(F)cc4)CC3)ccc2c1)N1CCCC1
1310	CCOc1ccc(-c2csc(Cc3nc(-c4ccc(C)cc4)no3)n2)cc1
907	CC(C)(C)N(CC(=O)N(Cc1ccco1)CC1CCCO1)C(=O)Cc1ccccc1 (stereo unspecified)
865	Cc1ccc(-n2nc3c(N4CCCC(C(=O)NCCC5=CCCCC5)C4)nnc(C)c3c2C)cc1 (stereo unspecified)
743	C=CCn1c(SCC(=O)OCC)nnc1-c1ccc([N+](=O)[O-])cc1
1040	CCn1cc(-c2nc(C(=O)N3CCN(c4ccccc4F)CC3)cs2)c2cccnc21
659	O=C(CSc1ccc(F)cc1)Nc1cccc2ccc(-n3ccnc3)nc12
598	CCCC(=O)Nc1ccc(-n2cnc(C(=O)NC)c2)nc1
